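Grown in 96-well plates, cells were treated for 48 hours with each compound at five concentrations. Insufficient inhibition: endpoint recorded as highest concentration tested. At the GI50, growth is halved.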 Activity calls are given as the source filed them. Rule as the data show it: active = GI50 up to about 1.1 µM and inactive = higher.
Experiments:
Experiment in all cases: DTP human tumour cell line panel, 48 h
M14 = test system: M14
OVCAR-8 = test system: OVCAR-8
Malme-3M = test system: Malme-3M
SNB-19 = test system: SNB-19
COLO 205 = test system: COLO 205
SK-MEL-2 = test system: SK-MEL-2
CAKI-1 = test system: CAKI-1
SR = test system: SR
SW-620 = test system: SW-620
SF-539 = test system: SF-539
MDA-N = test system: MDA-N
IGROV-1 = test system: IGROV-1
ACHN = test system: ACHN
NCI/ADR-RES = test system: NCI/ADR-RES
SN12C = test system: SN12C
UACC-257 = test system: UACC-257
Hs-578T = test system: Hs-578T
KM12 = test system: KM12
NCI-H226 = test system: NCI-H226
BT-549 = test system: BT-549
A549 = test system: A549
MCF7 = test system: MCF7
DU-145 = test system: DU-145
UACC-62 = test system: UACC-62
NCI-H23 = test system: NCI-H23
MDA-MB-435 = test system: MDA-MB-435
786-0 = test system: 786-0
HOP-62 = test system: HOP-62
T47D = test system: T47D
HOP-92 = test system: HOP-92
MDA-MB-231 = test system: MDA-MB-231
SF-268 = test system: SF-268
LOX IMVI = test system: LOX IMVI
SNB-75 = test system: SNB-75
SK-OV-3 = test system: SK-OV-3
UO-31 = test system: UO-31
NCI-H460 = test system: NCI-H460
NCI-H522 = test system: NCI-H522
HL-60 = test system: HL-60
U-251 = test system: U-251
OVCAR-4 = test system: OVCAR-4
K562 = test system: K562
SK-MEL-5 = test system: SK-MEL-5
HCT-15 = test system: HCT-15
HCC 2998 = test system: HCC 2998
CCRF-CEM = test system: CCRF-CEM
SF-295 = test system: SF-295
MOLT-4 = test system: MOLT-4
EKVX = test system: EKVX
TK-10 = test system: TK-10
OVCAR-5 = test system: OVCAR-5
RPMI-8226 = test system: RPMI-8226
HCT-116 = test system: HCT-116
RXF 393 = test system: RXF 393
PC-3 = test system: PC-3
HT-29 = test system: HT-29
SK-MEL-28 = test system: SK-MEL-28
OVCAR-3 = test system: OVCAR-3

For `CCOC(=O)C1(C(=O)OCC)[C@@H](c2ccccc2)C2=NO[C@@H]3CCC[C@H]1[C@H]23`, the GI50 (M14) was 31.9 µM (inactive), the GI50 (OVCAR-8) was 58.9 µM (inactive) and the GI50 (Malme-3M) was > 100 µM (inactive). For the same molecule, the GI50 (SNB-19) was > 100 µM (inactive), the GI50 (COLO 205) was 29 µM (inactive) and the GI50 (SK-MEL-2) was 55.5 µM (inactive). The GI50 (CAKI-1) was 44.9 µM (inactive), the GI50 (SR) was 40.7 µM (inactive) and the GI50 (SW-620) was 43.8 µM (inactive). The GI50 (SF-539) was 96.2 µM (inactive), the GI50 (MDA-N) was 24.5 µM (inactive) and the GI50 (IGROV-1) was 50.4 µM (inactive). The GI50 (ACHN) was 66.7 µM (inactive), the GI50 (NCI/ADR-RES) was 56.9 µM (inactive) and the GI50 (SN12C) was > 100 µM (inactive). For the same molecule, the GI50 (UACC-257) was 24 µM (inactive), the GI50 (Hs-578T) was > 100 µM (inactive) and the GI50 (KM12) was 28.9 µM (inactive). The GI50 (NCI-H226) was 78.5 µM (inactive), the GI50 (BT-549) was 42.7 µM (inactive) and the GI50 (A549) was 48.4 µM (inactive). The GI50 (MCF7) was 41.7 µM (inactive), the GI50 (DU-145) was > 100 µM (inactive) and the GI50 (UACC-62) was 8.26 µM (inactive). The GI50 (NCI-H23) was 42.5 µM (inactive), the GI50 (MDA-MB-435) was 21.6 µM (inactive) and the GI50 (786-0) was 89.3 µM (inactive). The GI50 (HOP-62) was 43.6 µM (inactive), the GI50 (T47D) was 20.8 µM (inactive) and the GI50 (HOP-92) was 42.7 µM (inactive). The GI50 (MDA-MB-231) was > 100 µM (inactive), the GI50 (SF-268) was > 100 µM (inactive) and the GI50 (LOX IMVI) was 81.1 µM (inactive). The GI50 (SNB-75) was 47.4 µM (inactive), the GI50 (SK-OV-3) was 53.6 µM (inactive) and the GI50 (UO-31) was 53.3 µM (inactive). The GI50 (NCI-H460) was 57.7 µM (inactive), the GI50 (NCI-H522) was 42.1 µM (inactive) and the GI50 (HL-60) was 24.3 µM (inactive). For the same molecule, the GI50 (U-251) was 47.5 µM (inactive), the GI50 (OVCAR-4) was 43 µM (inactive) and the GI50 (K562) was 52.5 µM (inactive). For the same molecule, the GI50 (SK-MEL-5) was 24.3 µM (inactive), the GI50 (HCT-15) was 56 µM and the GI50 (HCC 2998) was 18 µM (inactive). The GI50 (CCRF-CEM) was 23.8 µM (inactive), the GI50 (SF-295) was 51.6 µM (inactive) and the GI50 (MOLT-4) was 55.7 µM (inactive). For the same molecule, the GI50 (EKVX) was 34.7 µM (inactive), the GI50 (TK-10) was 49.4 µM (inactive) and the GI50 (OVCAR-5) was > 100 µM (inactive). The GI50 (RPMI-8226) was 23.5 µM (inactive), the GI50 (HCT-116) was 45.5 µM (inactive) and the GI50 (RXF 393) was 48.4 µM (inactive). For the same molecule, the GI50 (PC-3) was 60.1 µM (inactive), the GI50 (HT-29) was 45.4 µM (inactive) and the GI50 (SK-MEL-28) was > 100 µM (inactive). For the same molecule, the GI50 (OVCAR-3) was 27 µM (inactive).
In the case of `Cc1ccc2nc(-c3ccccc3)cc(=O)n2c1`, the GI50 (M14) was > 100 µM (inactive), the GI50 (OVCAR-8) was > 100 µM (inactive) and the GI50 (Malme-3M) was > 100 µM (inactive). For the same molecule, the GI50 (SNB-19) was > 100 µM (inactive), the GI50 (COLO 205) was > 100 µM (inactive) and the GI50 (SR) was > 100 µM (inactive). The GI50 (SW-620) was > 100 µM (inactive), the GI50 (SF-539) was > 100 µM (inactive) and the GI50 (MDA-N) was > 100 µM (inactive). For the same molecule, the GI50 (IGROV-1) was > 100 µM (inactive), the GI50 (ACHN) was > 100 µM (inactive) and the GI50 (NCI/ADR-RES) was 69.7 µM (inactive). For the same molecule, the GI50 (SN12C) was > 100 µM (inactive), the GI50 (UACC-257) was > 10 µM (inactive) and the GI50 (Hs-578T) was > 100 µM (inactive). The GI50 (KM12) was > 100 µM (inactive), the GI50 (NCI-H226) was 64.6 µM (inactive) and the GI50 (BT-549) was > 100 µM (inactive). For the same molecule, the GI50 (A549) was > 100 µM (inactive), the GI50 (MCF7) was > 100 µM (inactive) and the GI50 (DU-145) was > 100 µM (inactive). For the same molecule, the GI50 (UACC-62) was > 100 µM (inactive), the GI50 (NCI-H23) was > 100 µM (inactive) and the GI50 (MDA-MB-435) was > 100 µM (inactive). The GI50 (786-0) was > 100 µM (inactive), the GI50 (HOP-62) was > 100 µM (inactive) and the GI50 (T47D) was 38.6 µM (inactive). For the same molecule, the GI50 (HOP-92) was > 100 µM (inactive), the GI50 (MDA-MB-231) was > 100 µM (inactive) and the GI50 (SF-268) was > 100 µM (inactive). The GI50 (SNB-75) was > 100 µM (inactive), the GI50 (SK-OV-3) was > 100 µM (inactive) and the GI50 (NCI-H460) was > 100 µM (inactive). For the same molecule, the GI50 (NCI-H522) was > 100 µM (inactive), the GI50 (HL-60) was > 100 µM (inactive) and the GI50 (U-251) was > 100 µM (inactive). For the same molecule, the GI50 (OVCAR-4) was > 100 µM (inactive), the GI50 (K562) was > 100 µM (inactive) and the GI50 (SK-MEL-5) was > 100 µM (inactive). For the same molecule, the GI50 (HCT-15) was > 100 µM, the GI50 (HCC 2998) was > 100 µM (inactive) and the GI50 (CCRF-CEM) was > 100 µM (inactive). The GI50 (SF-295) was > 100 µM (inactive), the GI50 (MOLT-4) was > 100 µM (inactive) and the GI50 (EKVX) was 81.8 µM (inactive). For the same molecule, the GI50 (TK-10) was > 100 µM (inactive), the GI50 (OVCAR-5) was > 100 µM (inactive) and the GI50 (RPMI-8226) was > 100 µM (inactive). The GI50 (HCT-116) was > 100 µM (inactive), the GI50 (RXF 393) was > 100 µM (inactive) and the GI50 (PC-3) was > 100 µM (inactive). For the same molecule, the GI50 (HT-29) was > 100 µM (inactive), the GI50 (SK-MEL-28) was > 100 µM (inactive) and the GI50 (OVCAR-3) was > 100 µM (inactive).
In the case of `C/C1=C/C[C@@H](/C(C)=C/c2csc(C)n2)OC(=O)C[C@H](O)C(C)(C)C(=O)[C@H](C)[C@@H](O)[C@@H](C)CCC1` [EPOTHILONE D], the GI50 (M14) was < 0.0001 µM (active), the GI50 (OVCAR-8) was < 0.0001 µM (active) and the GI50 (SNB-19) was < 0.0001 µM (active). For the same molecule, the GI50 (COLO 205) was < 0.0001 µM (active), the GI50 (SK-MEL-2) was < 0.0001 µM (active) and the GI50 (CAKI-1) was < 0.0001 µM (active). For the same molecule, the GI50 (SR) was < 0.0001 µM (active), the GI50 (SW-620) was < 0.0001 µM (active) and the GI50 (SF-539) was < 0.0001 µM (active). The GI50 (MDA-N) was < 0.0001 µM (active), the GI50 (IGROV-1) was < 0.0001 µM (active) and the GI50 (ACHN) was < 0.0001 µM (active). The GI50 (NCI/ADR-RES) was < 0.0001 µM (active), the GI50 (SN12C) was < 0.0001 µM (active) and the GI50 (Hs-578T) was < 0.0001 µM (active). For the same molecule, the GI50 (KM12) was < 0.0001 µM (active), the GI50 (NCI-H226) was < 0.0001 µM (active) and the GI50 (BT-549) was < 0.0001 µM (active). The GI50 (A549) was < 0.0001 µM (active), the GI50 (MCF7) was < 0.0001 µM (active) and the GI50 (DU-145) was < 0.0001 µM (active). The GI50 (UACC-62) was < 0.0001 µM (active), the GI50 (NCI-H23) was < 0.0001 µM (active) and the GI50 (MDA-MB-435) was < 0.0001 µM (active). For the same molecule, the GI50 (786-0) was < 0.0001 µM (active), the GI50 (HOP-62) was < 0.0001 µM (active) and the GI50 (T47D) was < 0.0001 µM (active). The GI50 (HOP-92) was 0.141 µM (active), the GI50 (MDA-MB-231) was < 0.0001 µM (active) and the GI50 (SF-268) was < 0.0001 µM (active). For the same molecule, the GI50 (LOX IMVI) was < 0.0001 µM (active), the GI50 (SNB-75) was < 0.0001 µM (active) and the GI50 (SK-OV-3) was < 0.0001 µM (active). For the same molecule, the GI50 (UO-31) was < 0.0001 µM (active), the GI50 (NCI-H460) was < 0.0001 µM (active) and the GI50 (NCI-H522) was < 0.0001 µM (active). For the same molecule, the GI50 (U-251) was < 0.0001 µM (active), the GI50 (OVCAR-4) was 0.137 µM (active) and the GI50 (K562) was < 0.0001 µM (active). The GI50 (SK-MEL-5) was < 0.0001 µM (active), the GI50 (HCT-15) was < 0.0001 µM and the GI50 (HCC 2998) was < 0.0001 µM (active). For the same molecule, the GI50 (CCRF-CEM) was < 0.0001 µM (active), the GI50 (SF-295) was < 0.0001 µM (active) and the GI50 (MOLT-4) was < 0.0001 µM (active). For the same molecule, the GI50 (EKVX) was < 0.0001 µM (active), the GI50 (TK-10) was 0.000192 µM (active) and the GI50 (OVCAR-5) was < 0.0001 µM (active). For the same molecule, the GI50 (RPMI-8226) was < 0.0001 µM (active), the GI50 (HCT-116) was < 0.0001 µM (active) and the GI50 (RXF 393) was < 0.0001 µM (active). For the same molecule, the GI50 (PC-3) was < 0.0001 µM (active), the GI50 (HT-29) was < 0.0001 µM (active) and the GI50 (OVCAR-3) was < 0.0001 µM (active).

Reference: ChEMBL document CHEMBL1201862, “PubChem BioAssay data set” (2004)
